System: von Bezold-Jarisch reflex evoked by 5-HT
Test: Antagonism of the von Bezold-Jarisch reflex evoked by 5-HT in the anaesthetised rat
Type: in vivo
Details: male rats, urethane anaesthesia, submaximal 5-HT (usually 6 μg/kg) i.v., heart rate changes; for ED50: Rattus norvegicus, iv, read-out: ED50 (required to reduce the 5HT-evoked response to 50% of the control response)
Experimental: Antagonism of the von Bezold-Jarisch reflex
The compounds were evaluated for antagonism of the von Bezold-Jarisch reflex evoked by 5-HT in the anaesthetised rat according to the following method:
Male rats, 250-350 g, were anaesthetised with urethane (1.25 g/kg intraperitoneally) and blood pressure and heart rate recorded as described by Fozard J.R. et al., J. Cardiovasc. Pharmacol. 2, 229-245 (1980). A submaximal dose of 5-HT (usually 6 μg/kg) was given repeatedly by the intravenous route and changes in heart rate quantified. Compounds were given intravenously and the concentration required to reduce the 5HT-evoked response to 50% of the control response (ED50) was then determined.

For CN1[C@@H]2CC[C@H]1C[C@@H](n1nnc3ccc(Cl)cc3c1=O)C2 [Compound E1, (endo)-3-(8-Methyl-8-azabicyclo[3.2.1]oct-3-yl)-6-chloro-3,4-dihydro-4-oxo-1,2,3-benzotriazine], the ED50 was 0.012 mg/kg.

In the case of CN1[C@@H]2CC[C@H]1C[C@@H](n1nnc3cc([N+](=O)[O-])c(Cl)cc3c1=O)C2 [Compound E3, (endo)-3-(8-Methyl-8-azabicyclo[3.2.1]oct-3-yl)-6-chloro-7-nitro-3,4-dihydro-4-oxo-benzotriazine], the ED50 is reported as 0.013 mg/kg.

With CN1[C@@H]2CC[C@H]1C[C@@H](n1nnc3cc(N)c(Cl)cc3c1=O)C2 [Compound E4, (endo)-3-(8-Methyl-8-azabicyclo[3.2.1]oct-3-yl)-7-amino-6-chloro-3,4-dihydro-4-oxo-benzotriazine] the ED50 was 0.00017 mg/kg.

For CN1CC2CCC1CC2n1nnc2cc(N)c(Cl)cc2c1=O (stereo not drawn) [Compound E8, (5β)-3-(2-Methyl-2-azabicyclo[2.2.2]oct-5-yl)-7-amino-6-chloro-3,4-dihydro-4-oxobenzotriazine], the “ED50 (required to reduce the 5HT-evoked response to 50% of the control response)” value (i.v.) was 6 µg/kg.

Reference: patent US4959367A, “4-oxo-1,2,3-benzotriazines” (Beecham Group P.L.C., priority 1987, dated 1990)
